Measured values: patent publication US20200399238A1, “THERAPEUTIC AURONES” (MIDDLE TENNESSEE STATE UNIVERSITY, priority 2016, published 2020)
Where “and” joins values, the source holds several entries; their conditions need not be identical. Equal values may be shown once. Read-outs that look alike come from different tables or passages of the source.

How the values were obtained:
[1] = tested on: Leishmania amazonensis promastigotes expressing beta-lactamase; test: microbe, parasite or virus in culture; format: cell-based; details: Leishmania amazonensis
Description: Leishmania amazonensis promastigotes expressing beta-lactamase (Buckner et al., Am. J. Trop. Med. Hyg. 72 (2005) 600-605. doi:72/5/600 [pii]) were cultured in RPMI supplemented with 10% fetal calf serum and 1% pen-strep-glut solution (Sigma) at 27° C. Stationary phase promastigotes were adjusted in fresh media, treated with compounds, and incubated at 37° C. At 24 hours, 100 uL of cultures was added to 50 uL of the CellTiter Glo® solution. Luminescence readings were taken with a spectrophotometer and used to calculate inhibition.

[2] = tested on: Trypanosoma brucei brucei 427 cells; test: T. brucei culture and assay (PrestoBlue); format: cell-based; details: for IC50: Trypanosoma brucei
[3] = tested on: rat skeletal muscle cell line, L6; test: cells; format: cell-based; details: Rattus norvegicus
Description: Cells were maintained in high glucose DMEM obtained from HyClone Laboratories (Logan, Utah) and supplemented with FCS and P/S at the same concentrations used for parasite culture. Cells were passaged every 3-4 days and maintained in a 37° C. humidified incubator in an atmosphere of 5% CO2. For assays. cells were detached, counted using a hemocytometer, and adjusted using fresh media to deliver 5×10^3 cells per well (90 μL) in black walled, flat clear bottom 96-well microtiter plates. After 3 h incubation for attachment, compounds diluted in culture medium were added (10 μL) to triplicate wells. Positive controls (cells treated with podophyllotoxin (Sigma, St. Louis, Mo.)), negative controls (untreated cells), solvent controls (DMSO) and media blanks were included on each plate. Following incubation for 71.5 h, 11 μL of PrestoBlue was added into each well.

[4] = tested on: Trypanosoma cruzi Tulahuen cells expressing beta-galactosidase; test: T. cruzi intracellular assay (beta-galactosidase, L6 host cells); details: for IC50: Trypanosoma cruzi, TULAHUEN
Description: Trypanosoma cruzi Tulahuen cells expressing beta-galactosidase (Buckner et al., Antimicrob. Agents Chemother. 40 (1996) 2592-2597) were cultured using the L6 cell line as a host cell. Adherent L6 cultures were infected with freshly burst T. cruzi trypomastigotes. Approximately 4-6 days later freshly burst trypomastigotes were collected and used to maintain cultures For assays, trypomastigotes were centrifuged to a loose pellet and incubated for 3 hours to allow the trypomastigote forms to swim out of the pellet. Cells were adjusted for addition to intracellular or extracellular assays. […] For intracellular assays, cells were added to adherent L6 cells using an infection ratio of 1:1 and immediately treated with compounds. At 96 hours incubations, a solution containing chlorophenol-red-B-D-beta-galactopyranosidase (Sigma) and a lysis agent were added. After an additional 2 hour incubation, a spectrophotometer was used to quantify the resulting color change (or lack thereof) which was used to calculate inhibition.
The percentage of cell inhibition was calculated using the formula: Percent Inhibition=1−((Treated Sample value−Medium only value)/(Untreated value−Medium only value))×100. Results are expressed as the mean of two or more independent trials.

[5] = Table 1, mean of 2(+) independent trials, read-out: IC50 T. brucei
[6] = Table 1, read-out: IC50 Toxicity (L6)
[7] = read-out: IC50 T. cruzi, Table 1, intracellular assay, mean of 2(+) trials (^c one trial)
[8] = read-out: IC50 T. cruzi, Table 2, intracellular assay, mean of 2(+) independent trials
[9] = Table 3B, weighted means of two or more independent trials, read-out: IC50 L6
[10] = read-out: IC50 TC-I, Table 3B, weighted means of two or more independent trials
[11] = Table 3B, estimated from highest L6 dose tested where no L6 IC50

| Compound | IC50 ([1]; read-out: IC50 L. amaz.) | IC50 [2, 5] | IC50 [3, 6] | IC50 [4, 7] | IC50 [4, 8] | other results |
| --- | --- | --- | --- | --- | --- | --- |
| CC(=O)N1/C(=C\c2ccccc2O)C(=O)c2ccccc21 [AA3A] | < 1 µM | > 50 µM | > 200 µM | > 50 µM | > 50 µM | – |
| CC(=O)N1/C(=C\c2ccc[nH]2)C(=O)c2ccccc21 [AA5A] | < 1 µM | 26.3 µM | 39.8 µM | 33.5 µM | 33.5 µM | – |
| O=C1/C(=C/c2ccc[nH]2)Nc2ccccc21 [AA5] | – | 49.3 µM | 39.7 µM | 27.8 µM | – | – |
| O=C1/C(=C/c2ccccc2)Nc2ccccc21 [AA8] | < 1 µM | 11.7 µM | > 100 µM | 16.8 µM | 16.8 µM | – |
| O=C1/C(=C/c2cccs2)Nc2ccccc21 [AA9] | < 1 µM | > 50 µM | > 200 µM | > 50 µM | > 50 µM | – |
| O=C1/C(=C/c2ccccc2Cl)Nc2ccccc21 [AA11] | 1.86 µM | > 50 µM | > 200 µM | > 50 µM | – | IC50 ([4]; read-out: IC50 T. cruzi (footnote c: value obtained from one trial), Table 2, one trial): > 50 µM |
| O=C1/C(=C/c2ccccc2Cl)Oc2ccccc21 [Aurone 3a, (Z)-2-(2-chlorobenzylidene)benzofuran-3(2H)-one] | – | – | – | – | – | selectivity for T. brucei (L6/Tb) [2]: 21.02; IC50 ([2]; read-out: T. brucei IC50 dose): 11.3 µM |
| O=C1/C(=C/c2ccc(Cl)cc2)Oc2ccccc21 [Aurone 3c, (Z)-2-(4-chlorobenzylidene)benzofuran-3(2H)-one] | – | – | – | – | – | IC50 ([4]; read-out: T. cruzi IC50 dose): < 10 µM |
| O=C1/C(=C/c2cccc(I)c2)Oc2ccccc21 [Aurone 4b, (Z)-2-(3-iodobenzylidene)benzofuran-3(2H)-one] | – | – | – | – | – | IC50 ([2]; read-out: T. brucei IC50 dose): > 50 µM; IC50 ([4]; read-out: T. cruzi IC50 dose): < 10 µM |
| O=C1/C(=C/c2cccc(Br)c2)Oc2ccccc21 [Aurone 5b, (Z)-2-(3-bromobenzylidene)benzofuran-3(2H)-one] | – | – | – | – | – | IC50 ([2]; read-out: T. brucei IC50 dose): > 50 µM; IC50 ([4]; read-out: T. cruzi IC50 dose): < 10 µM |
| O=C1/C(=C/c2ccc(C(F)(F)F)cc2)Oc2ccccc21 [Aurone 6c, (Z)-2-(4-(trifluoromethyl)benzylidene)benzofuran-3(2H)-one] | – | – | – | – | – | IC50 ([4]; read-out: T. cruzi IC50 dose): < 10 µM |
| N#Cc1ccc(/C=C2\Oc3ccccc3C2=O)cc1 [Aurone 7c] | – | – | – | – | – | selectivity for T. brucei (L6/Tb) [2]: 29.49 and 29.46; IC50 ([2]; read-out: T. brucei IC50 dose): 8.12 µM |
| O=C1/C(=C/c2cccc([N+](=O)[O-])c2)Oc2ccccc21 [Aurone 12a] | – | – | – | – | – | activity against T. brucei [2]: modest activity; activity against T. cruzi [4]: modest activity |
| O=C1/C(=C/c2ccc([N+](=O)[O-])cc2)Oc2ccccc21 [Aurone 12b] | – | – | – | – | – | activity against T. brucei [2]: modest activity; activity against T. cruzi [4]: modest activity |
| COC(=O)c1ccc(/C=C2\Oc3ccccc3C2=O)cc1 [Aurone 13, Methyl (Z)-4-((3-oxobenzofuran-2(3H)-ylidene)methyl)benzoate] | – | – | – | – | – | activity against T. brucei [2]: no activity; activity against T. cruzi [4]: no activity |
| O=C1/C(=C/c2ccc(Br)cc2)Oc2c1ccc(O)c2O [Aurone 1005, (Z)-2-(4-bromobenzylidene)-6,7-dihydroxybenzofuran-3(2H)-one] | 31.1 µM | 48 µM | > 100 µM | > 50 µM | – | – |

| Compound | IC50 ([1]; read-out: IC50 L. amaz.) | IC50 [2, 5] | IC50 [3, 6] | IC50 [4, 7] | IC50 [4, 8] | other results |
| --- | --- | --- | --- | --- | --- | --- |
| COc1ccc(/C=C2\Oc3ccccc3C2=O)c(OC)c1OC [Aurone 2001] | 13.3 µM | 22.4 µM | > 100 µM | > 50 µM | – | – |
| COc1cc(/C=C2\Oc3ccccc3C2=O)cc(OC)c1OC [Aurone 2002] | 12.6 µM | > 50 µM | > 100 µM | > 50 µM | – | – |
| O=C1/C(=C/c2cccs2)Oc2ccccc21 [Aurone 2004] | < 1 µM | 41.8 µM | > 100 µM | 13.7 µM | 13.7 µM | activity against T. brucei [2]: moderate activity; IC50 [3, 9]: > 100 µM; IC50 [4, 10]: 13.7 µM; IC50 ([4]; read-out: T. cruzi IC50 dose): 13.7 µM |
| O=C1/C(=C/c2ccncc2)Oc2ccccc21 [Aurone 2008] | 26.3 µM | > 50 µM | 81.1 µM | 16.4 µM | – | IC50 [3, 9]: 81.1 µM; IC50 [4, 10]: 16.4 µM |
| O=C1/C(=C/c2ccc(Br)cc2)Oc2ccccc21 [Aurone 2009] | 10.3 µM | 41.7 µM | > 100 µM | 11.4 µM | – | – |
| O=C1/C(=C/c2ccc([N+](=O)[O-])cc2)Oc2ccccc21 [Aurone 2010] | 14.5 µM | 40.7 µM | 249 µM | 20 µM | 20 µM | – |
| COc1ccc(/C=C2\Oc3ccccc3C2=O)cc1OC [Aurone 2011] | 1.01 µM | 22.9 µM | 51.9 µM | 21.9 µM | 21.9 µM | – |
| O=C1/C(=C/C=C/c2ccccc2)Oc2ccccc21 [Aurone 2013] | 3.03 µM | 13.2 µM | 58 µM | 14.1 µM | 14.1 µM | IC50 ([1]; read-out: IC50 L. amaz. (footnote c: value obtained from one trial)): 3.03 µM; IC50 ([2]; read-out: T. brucei IC50 dose): 13.2 µM; IC50 ([4]; read-out: T. cruzi IC50 dose): 14.1 µM |
| N#Cc1ccc(/C=C2\Oc3ccccc3C2=O)cc1 [Aurone 2014] | 10.7 µM | 8.12 µM | 239 µM | 23.5 µM | 23.5 µM | – |
| O=C1/C(=C/c2cccc([N+](=O)[O-])c2)Oc2ccccc21 [Aurone 2015] | 1.71 µM | 29.2 µM | 226 µM | 22.6 µM | 22.6 µM | – |
| O=C1/C(=C/c2ccc(-c3ccccc3)cc2)Oc2ccccc21 [Aurone 2018] | 7.22 µM | > 50 µM | 298 µM | 34.4 µM | 34.4 µM | – |
| O=C1/C(=C/c2ccc[nH]2)Oc2ccccc21 [Aurone 2021] | < 1 µM | 38.9 µM | 82.7 µM | 14.6 µM | 14.6 µM | IC50 [3, 9]: 82.7 µM; IC50 [4, 10]: 14.6 µM |
| COc1cc(OC)c2c(c1)O/C(=C\c1ccc(C)cc1)C2=O [Aurone 7000] | – | 23.2 µM | 142 µM | 7.92 µM | 7.92 µM | – |
| O=C1/C(=C/c2cccc(Br)n2)Oc2ccccc21 [Aurone 9260, (Z)-2-((6-bromopyridin-2-yl)methylene)benzofuran-3(2H)-one] | – | 43.6 µM | > 100 µM | 14.6 µM | – | Selectivity L6/Tb ([2]; Table 1): >2.29; Selectivity L6/Tb [2, 11]: >4.96; IC50 ([2]; read-out: T. brucei IC50 dose): 43.6 µM; IC50 [3, 9]: > 100 µM; Selectivity L6/Tc ([4]; Table 1, intracellular T. cruzi IC50): >6.87; Selectivity L6/Tc-I [4, 11]: >6.87; IC50 [4, 10]: 14.6 µM |
| O=C1/C(=C/c2cccc(O)c2)Oc2ccccc21 [Sample 9252] | – | – | – | – | – | IC50 ([3]; Table 3A, weighted means of two or more independent trials, read-out: IC50 L6): > 100 µM; IC50 ([4]; read-out: IC50 TC-I, Table 3A, weighted means of two or more independent trials): 16.5 µM |
